target: T1, CRTH2 (Homo sapiens, UniProt Q9Y5Y4); experiment: FRET based competitive immunoassay (cAMP) in CRTH2 expressing CHO cells; format: cell-based; conditions: CRTH2 expressing CHO cells incubated with forskolin and PGD2; Eu3+ cryptate-labeled anti-cAMP and d2-labeled cAMP
T1 construct: expressed in transfected cells; host or cells: CHO cells
T1 sequence (Q9Y5Y4 1-395): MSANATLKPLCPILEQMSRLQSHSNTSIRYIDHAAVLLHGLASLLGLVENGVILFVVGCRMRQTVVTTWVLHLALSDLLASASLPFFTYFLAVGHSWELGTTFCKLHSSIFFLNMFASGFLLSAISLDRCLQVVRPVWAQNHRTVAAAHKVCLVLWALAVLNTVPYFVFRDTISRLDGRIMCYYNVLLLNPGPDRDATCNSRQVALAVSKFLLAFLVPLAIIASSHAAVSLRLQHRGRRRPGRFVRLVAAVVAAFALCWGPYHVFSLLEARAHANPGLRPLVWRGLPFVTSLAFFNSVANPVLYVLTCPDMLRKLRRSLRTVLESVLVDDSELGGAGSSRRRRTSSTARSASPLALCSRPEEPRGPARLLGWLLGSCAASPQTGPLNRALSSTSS
Description: FRET Assay: To evaluate potency compounds were tested in a FRET based competitive immunoassay in which CRTH2 expressing CHO cells were incubated in the presence of forskolin and PGD2 along with Eu3+ cryptate-labeled anti-cAMP and d2-labeled cAMP.

Row | SMILES | IC50 [nM]
1 | Cc1c(-c2ccc(=O)n(Cc3nc4ccccc4s3)n2)c2cc(F)ccc2n1CC(=O)O [Example 153, 2-(3-(1-(benzo[d]thiazol-2-ylmethyl)-6-oxo-1,6-dihydropyridazin-3-yl)-5-fluoro-2-methyl-1H-indol-1-yl)acetic acid] | 25
2 | Cc1c(-c2ccc(=O)n(Cc3cccc(F)c3)n2)c2cc(F)ccc2n1CC(=O)O [Example 154, 2-(5-Fluoro-3-(1-(3-fluorobenzyl)-6-oxo-1,6-dihydropyridazin-3-yl)-2-methyl-1H-indol-1-yl)acetic acid] | 30
3 | Cc1c(-c2ccc(=O)n(Cc3cccc(F)c3C(F)(F)F)n2)c2cc(F)ccc2n1CC(=O)O [Example 156, 2-(5-fluoro-3-(1-(3-fluoro-2-(trifluoromethyl)benzyl)-6-oxo-1,6-dihydro-pyridazin-3-yl)-2-methyl-1H-indol-1-yl)acetic acid] | 25
4 | Cc1c(-c2ccc(=O)n(Cc3ccc4ccccc4n3)n2)c2cc(F)ccc2n1CC(=O)O [Example 157, 2-(5-fluoro-2-methyl-3-(6-oxo-1-(quinolin-2-ylmethyl)-1,6-dihydro-pyridazin-3-yl)-1H-indol-1-yl)acetic acid] | 57
5 | Cc1cc(Cn2nc(-c3c(C)n(CC(=O)O)c4ccc(F)cc34)ccc2=O)c2ccccc2n1 [Example 158, 2-(5-fluoro-2-methyl-3-(1-((2-methylquinolin-4-yl)methyl)-6-oxo-1,6-dihydro-pyridazin-3-yl)-1H-indol-1-yl)acetic acid] | 73
6 | Cc1c(-c2ccc(=O)n(C)n2)c2cc(F)ccc2n1CC(=O)O [Example 159, 2-(5-fluoro-2-methyl-3-(1-methyl-6-oxo-1,6-dihydropyridazin-3-yl)-1H-indol-1-yl)acetic acid] | 2490
7 | Cc1c(-c2ccc(=O)n(CC(F)(F)F)n2)c2cc(F)ccc2n1CC(=O)O [Example 162, 2-(5-Fluoro-2-methyl-3-(6-oxo-1-(2,2,2-trifluoroethyl)-1,6-dihydropyridazin-3-yl)-1H-indol-1-yl)acetic acid] | 462
8 | Cc1c(-c2ccc(=O)n(CC(C)(C)C)n2)c2cc(F)ccc2n1CC(=O)O [Example 165, 2-(5-fluoro-2-methyl-3-(1-neopentyl-6-oxo-1,6-dihydropyridazin-3-yl)-1H-indol-1-yl)acetic acid] | > 1000
9 | Cc1c(-c2nn(Cc3ccc(S(C)(=O)=O)cc3)c(=O)c3ccccc23)c2ccccc2n1CC(=O)O [Example 168, 2-(2-methyl-3-(3-(4-(methylsulfonyl)benzyl)-4-oxo-3,4-dihydrophthalazin-1-yl)-1H-indol-1-yl)acetic acid] | 62
10 | Cc1c(-c2nn(Cc3ccc4ccccc4n3)c(=O)c3ccccc23)c2ccccc2n1CC(=O)O [Example 169, 2-(2-methyl-3-(4-oxo-3-(quinolin-2-ylmethyl)-3,4-dihydrophthalazin-1-yl)-1H-indol-1-yl)acetic acid] | 14
11 | Cc1c(-c2nn(Cc3ccc(OC(F)(F)F)cc3)c(=O)c3ccccc23)c2ccccc2n1CC(=O)O [Example 170, 2-(2-methyl-3-(4-oxo-3-(4-(trifluoromethoxy)benzyl)-3,4-dihydrophthalazin-1-yl)-1H-indol-1-yl)acetic acid] | 25
12 | Cc1c(-c2nn(C)c(=O)c3ccccc23)c2ccccc2n1CC(=O)O [Example 174, 2-(2-methyl-3-(3-methyl-4-oxo-3,4-dihydrophthalazin-1-yl)-1H-indol-1-yl)-acetic acid] | 980
13 | Cc1c(-c2nn(CC(F)(F)F)c(=O)c3ccccc23)c2ccccc2n1CC(=O)O [Example 177, 2-(2-Methyl-3-(4-oxo-3-(2,2,2-trifluoroethyl)-3,4-dihydrophthalazin-1-yl)-1H-indol-1-yl)-acetic acid] | 215
14 | Cc1c(-c2nn(C3CC3)c(=O)c3ccccc23)c2ccccc2n1CC(=O)O [Example 178, 2-(3-(3-cyclopropyl-4-oxo-3,4-dihydrophthalazin-1-yl)-2-methyl-1H-indol-1-yl)-acetic acid] | 215
15 | Cc1c(-c2nn(C3CCCC3)c(=O)c3ccccc23)c2ccccc2n1CC(=O)O [Example 179, 2-(3-(3-cyclopentyl-4-oxo-3,4-dihydrophthalazin-1-yl)-2-methyl-1H-indol-1-yl)-acetic acid] | > 1000
16 | Cc1c(-c2ccc(=O)n(Cc3ccccc3)n2)c2ccccc2n1CC(=O)O [Example 180, 2-(3-(1-benzyl-6-oxo-1,6-dihydropyridazin-3-yl)-2-methyl-1H-indol-1-yl)-acetic acid] | 96
17 | Cc1c(-c2ccc(=O)n(C(C)C)n2)c2ccccc2n1CC(=O)O [Example 181, 2-(3-(1-isopropyl-6-oxo-1,6-dihydropyridazin-3-yl)-2-methyl-1H-indol-1-yl)-acetic acid] | 920
18 | CCn1nc(-c2c(C)n(CC(=O)O)c3ccccc23)ccc1=O [Example 182, 2-(3-(1-ethyl-6-oxo-1,6-dihydropyridazin-3-yl)-2-methyl-1H-indol-1-yl)-acetic acid] | 1720
19 | Cc1c(-c2ccc(=O)n(C)n2)c2ccccc2n1CC(=O)O [Example 183, 2-(2-methyl-3-(1-methyl-6-oxo-1,6-dihydropyridazin-3-yl)-1H-indol-1-yl)-acetic acid] | 4990
20 | COC(=O)Cn1c(C)c(-c2ccc(=O)n(Cc3ccc(F)cc3F)n2)c2ccccc21 [Example 186, methyl 2-(3-(1-(2,4-difluorobenzyl)-6-oxo-1,6-dihydropyridazin-3-yl)-2-methyl-1H-indol-1-yl)acetate] | 150
21 | Cc1c(-c2ccc(=O)n(Cc3cc(F)c(F)cc3F)n2)c2ccccc2n1CC(=O)O [Example 187, 2-(2-methyl-3-(6-oxo-1-(2,4,5-trifluorobenzyl)-1,6-dihydropyridazin-3-yl)-1H-indol-1-yl)acetic acid] | 75
22 | Cc1c(-c2ccc(=O)n(Cc3cccc(F)c3F)n2)c2ccccc2n1CC(=O)O [Example 188, 2-(3-(1-(2,3-difluorobenzyl)-6-oxo-1,6-dihydropyridazin-3-yl)-2-methyl-1H-indol-1-yl)acetic acid] | 227

Further lines, results first:

Row | IC50 [nM] | SMILES
23 | 375 | CCn1nc(-c2c(C)n(CC(=O)O)c3ccc(F)cc23)ccc1=O [Example 160, 2-(3-(1-ethyl-6-oxo-1,6-dihydropyridazin-3-yl)-5-fluoro-2-methyl-1H-indol-1-yl)acetic acid]
24 | 23 | Cc1c(-c2ccc(=O)n(CC3CC3)n2)c2cc(F)ccc2n1CC(=O)O [Example 161, 2-(3-(1-(cyclopropylmethyl)-6-oxo-1,6-dihydropyridazin-3-yl)-5-fluoro-2-methyl-1H-indol-1-yl)acetic acid]
25 | 865 | Cc1c(-c2ccc(=O)n(CCCC(F)(F)F)n2)c2cc(F)ccc2n1CC(=O)O [Example 163, 2-(5-fluoro-2-methyl-3-(6-oxo-1-(4,4,4-trifluorobutyl)-1,6-dihydropyridazin-3-yl)-1H-indol-1-yl)acetic acid]
26 | 409 | Cc1c(-c2ccc(=O)n(CCC(F)(F)F)n2)c2cc(F)ccc2n1CC(=O)O [Example 164, 2-(5-fluoro-2-methyl-3-(6-oxo-1-(3,3,3-trifluoropropyl)-1,6-dihydro-pyridazin-3-yl)-1H-indol-1-yl)acetic acid]
27 | 14 | Cc1c(-c2nn(Cc3nc4ccccc4s3)c(=O)c3ccccc23)c2ccccc2n1CC(=O)O [Example 167, 2-(3-(3-(benzo[d]thiazol-2-ylmethyl)-4-oxo-3,4-dihydrophthalazin-1-yl)-2-methyl-1H-indol-1-yl)acetic acid]
28 | 296 | Cc1c(-c2nn(Cc3ccc(C(F)(F)F)cc3)c(=O)c3ccccc23)c2ccccc2n1CC(=O)O [Example 171, 2-(2-methyl-3-(4-oxo-3-(4-(trifluoromethyl)benzyl)-3,4-dihydrophthalazin-1-yl)-1H-indol-1-yl)acetic acid]
29 | 40 | Cc1c(-c2nn(Cc3c(F)cccc3F)c(=O)c3ccccc23)c2ccccc2n1CC(=O)O [Example 172, 2-(3-(3-(2,6-difluorobenzyl)-4-oxo-3,4-dihydrophthalazin-1-yl)-2-methyl-1H-indol-1-yl)acetic acid]
30 | 76 | Cc1ccc(Cn2nc(-c3c(C)n(CC(=O)O)c4ccccc34)c3ccccc3c2=O)cc1 [Example 173, 2-(2-methyl-3-(3-(4-methylbenzyl)-4-oxo-3,4-dihydrophthalazin-1-yl)-1H-indol-1-yl)acetic acid]
31 | 175 | CCn1nc(-c2c(C)n(CC(=O)O)c3ccccc23)c2ccccc2c1=O [Example 175, 2-(3-(3-ethyl-4-oxo-3,4-dihydrophthalazin-1-yl)-2-methyl-1H-indol-1-yl)-acetic acid]
32 | 123 | Cc1c(-c2nn(CC3CC3)c(=O)c3ccccc23)c2ccccc2n1CC(=O)O [Example 176, 2-(3-(3-(cyclopropylmethyl)-4-oxo-3,4-dihydrophthalazin-1-yl)-2-methyl-1H-indol-1-yl)acetic acid]
33 | 62 | Cc1c(-c2ccc(=O)n(CC3CC3)n2)c2ccccc2n1CC(=O)O [Example 184, 2-(3-(1-(cyclopropylmethyl)-6-oxo-1,6-dihydropyridazin-3-yl)-2-methyl-1H-indol-1-yl)acetic acid]
34 | > 1000 | Cc1c(-c2ccc(=O)n(CC(F)(F)F)n2)c2ccccc2n1CC(=O)O [Example 185, 2-(2-methyl-3-(6-oxo-1-(2,2,2-trifluoroethyl)-1,6-dihydropyridazin-3-yl)-1H-indol-1-yl)acetic acid]
